One may read the Kd as the free concentration of one partner at which half of the binding sites on the other are occupied at equilibrium, for simple one-to-one binding. The term Km denotes the substrate concentration at which the rate is half of its maximum.

Series [1] has as its target GH47 model enzyme from Caulobacter K31 strain. The settings on record: cited from earlier work.
The nature of series [2]: Chemical stability of the final compounds on storage. Format: physicochemical. The settings on record: storage for a week at room temperature. The source says: 1,6-Cis-manno-cyclosulfate, 4, and 1,6-trans-manno-cyclosulfate, 5, were synthesized from mannose-configured cis-diol and trans-diol, respectively (ESI, Scheme S1 ^†).
Substrate in series [3]: OC[C@H]1O[C@H](O[C@@H]2C(O)O[C@H](CO)[C@@H](O)[C@@H]2O)[C@@H](O)[C@@H](O)[C@@H]1O
Description: purified protein, by the assay type. The settings on record: other: CkGH47 WT, substrate; pH 7.0.

Substrate in series [4]: OC[C@H]1O[C@H](O[C@@H]2C(O)O[C@H](CO)[C@@H](O)[C@@H]2O)[C@@H](O)[C@@H](O)[C@@H]1O
Description: purified protein, by the assay type. Format: biochemical, Caulobacter K31 strain. The settings on record: other: CkGH47 L310S, substrate; pH 7.0. Here is the method: Fig. 4 Catalytic activity of CkGH47 WT compared to the CkGH47 L310S mutant. […] (C) The Ki, derived from the gradient (1/Ki), for 6 against CkGH47 L310S.
Trans-Cyclosulfamidate Cyclitols Males et al.
2.1 Biochemical and biological methods
To obtain Michaelis-Menten kinetics
Lastly, to achieve an inhibition constant, the
The gradient of the graph, V0/Vi
After taking each time point, the sample was heat denatured at 95 °C for 5 minutes. The reactions were conducted in triplicate and averaged. […]
microplate spectrophotometer (BioTek). The mannose detection kit (Megazyme) was used to detect […]
dehydrogenase, was monitored at 340 nm. The absorbance after hexokinase was added to the mixture […]
2.1.2 Isothermal titration calorimetry
MicroCal ITC200 calorimeter at 25 °C over 20 injections. The experiment was duplicated to obtain a […]
the MicroCal PEAK-ITC analysis software.
2.2 Crystallographic data collection and refinement of CkGH47
3′ and the reverse primer was 5′-[…]-3′. Protein production and purification was followed as described previously.[3]
Reference data in the form of a
Refinement of the model was conducted […]
conformation was conducted using […]. Details of the data collection and refinement statistics […]
Figures of the structure were produced by using CCP4mg.

For the molecule `OC[C@@H]1[C@@H](O)[C@H](O)[C@H](O)c2nccn21` [mannoimidazole], in series [1], the Kd was 47 nM.

With `OC[C@H]1NC[C@@H](O)[C@@H](O)[C@@H]1O` [DMJ, 1-deoxymannojirimycin], in series [1], the Kd was 481 nM.

Regarding `O=C1N[C@@H]2[C@@H](O)[C@@H](O)[C@H](O)[C@@H](CO)N2C1=O` [kifunensine], the Kd in series [1] was 39 nM. Turning to `O=S1(=O)O[C@@H]2[C@@H](O)[C@@H](O)[C@H](O)[C@@H](CO)[C@@H]2O1` [compound 4, 1,6-cis-manno-cyclosulfate], the stability on storage result in series [2] was “compound degradation”. Same read-out and setting: as for `O=S1(=O)O[C@@H]2[C@@H](O)[C@@H](O)[C@H](O)[C@@H](CO)[C@H]2O1` [compound 5, 1,6-trans-manno-cyclosulfate], the entry is “compound degradation”.

B1: CkGH47 WT (Caulobacter sp. K31) (protein)
chain: AAETTPEDWKALAADVRSEFQWAWQGYVAKAWGKDEINPVSGTSRSFFIEGHDLGLSLVEALDTLWIMGLDAEFQAGVDWVKANLSFDVDGNAQVFETNIRLVGGLLSAHLASGDPVLLAKARDLADRLAKAFEASPHGLPWRYVNLRTGAVSDPETNLAEIGTYLSEFGVLSQLTGERKYFDMAKRAMRHTLDRRSKIGLMAANIHAMTGAFTSRNASIDVYADSFYEYLWDAWALFGDEDCKRWAVECVDAQLAHQAKRYDGRLWFPMVDFETGAVTGTAQSELAAYYAGLLGQVGRKAQGDDYLASFTYLQATFGVIPESIDVTTGQPRRKHTGLRPEYPDACLNLWLIDRDPRYRRLAAIHYREMKATSRAAFGYTALKDITTRPMTQDDNCPGYWWSEQMKYYYLLFSDTPRIDYGQLQLSTEANVLRGFRKV
In the case of B1, the Km in series [3] is 65.7 ± 14.2 µM.

B2: CkGH47 L310S (Caulobacter sp. K31; L310S) (protein)
chain: AAETTPEDWKALAADVRSEFQWAWQGYVAKAWGKDEINPVSGTSRSFFIEGHDLGLSLVEALDTLWIMGLDAEFQAGVDWVKANLSFDVDGNAQVFETNIRLVGGLLSAHLASGDPVLLAKARDLADRLAKAFEASPHGLPWRYVNLRTGAVSDPETNLAEIGTYLSEFGVLSQLTGERKYFDMAKRAMRHTLDRRSKIGLMAANIHAMTGAFTSRNASIDVYADSFYEYLWDAWALFGDEDCKRWAVECVDAQLAHQAKRYDGRLWFPMVDFETGAVTGTAQSESAAYYAGLLGQVGRKAQGDDYLASFTYLQATFGVIPESIDVTTGQPRRKHTGLRPEYPDACLNLWLIDRDPRYRRLAAIHYREMKATSRAAFGYTALKDITTRPMTQDDNCPGYWWSEQMKYYYLLFSDTPRIDYGQLQLSTEANVLRGFRKV
Turning to B2, the Km in series [4] came out at 402.8 ± 71.3 µM.

The record behind these values is publication PMC10685318, “Trans-cyclosulfamidate mannose-configured cyclitol allows isoform-dependent inhibition of GH47 α-D-mannosidases through a bump–hole strategy” (Chemical Science, 2023).
